Laboratory results as given in US20160030415A1, “TREATMENT AND PROPHYLAXIS OF KIDNEY DISEASES” (priority 2013, published 2016).

Test system: STZ induced diabetic nephropathy in rats
Experiment: Study 4: HCQ and its combination with Losartan, Telmisartan, Azilsartan and Ramipril, with Glimepiride control
Assay type: in vivo, Wistar rats
Conditions: for HDL / TC / TG / GSH / TBARS / Total protein kidney / Creatinine / Total protein / Urea: after 8th week; for Glucose Day1 / Glucose Day14 / Glucose Day28 / Glucose Day42 / Glucose Day56: blood; for GSH / TBARS / Total protein kidney: kidney homogenate; for Creatinine / Total protein / Urea: serum
Description: The methods described in Terri et al, Diabetes Volume, 1997, 46:1612-1618, and Takashi et al, Jpn J. Pharmacol, 1997, 75, 59-64, were followed for inducing Diabetes in rats by injecting Streptozotocin. The Efficacy of the drugs was tested in two different models, one involving comparison with diabetic control (i.e. Diabetic Rats not treated with any medication) and the other involving comparison with the anti-diabetic control group (i.e. Diabetic rats administered Glimepiride) in two separate studies.
Wistar rats of either sex weighing 150-200 g were divided randomly into 28 groups consisting of 6 animals each. Diabetes was induced in rats by single administration of streptozotocin (55 mg/kg/i.p) dissolved in 0.1 M-citrate buffer, pH 4.5. Group 1 (normal control) consisted of normal rats that neither received streptozotocin nor any test drug; Group 2 served as Diabetic control; Group 3 was diabetic rats treated with Hydroxychloroquine (35 mg/kg); Group 4 was diabetic rats treated with Hydroxychloroquine (45 mg/kg) and Group 5 was diabetic rats treated with Hydroxychloroquine (70 mg/kg); Group 6 was diabetic rats treated with Losartan (5.5 mg/kg); Group 7 was diabetic rats treated with Losartan (11 mg/kg); Group 8 was diabetic rats treated with combination of Losartan (5.5 mg/kg) and Hydroxychloroquine (45 mg/kg); Group 9 was diabetic rats treated with combination of Losartan (11 mg/kg) and Hydroxychloroquine (35 mg/kg); Group 10 was diabetic rats treated with Ramipril (0.6 mg/kg); Group 11 was diabetic rats treated with Ramipril (0.3 mg/kg); Group 12 was diabetic rats treated with combination of Ramipril (0.6 mg/kg) and Hydroxychloroquine (35 mg/kg); Group 13 was diabetic rats treated with combination of Ramipril (0.3 mg/kg) and Hydroxychloroquine (45 mg/kg); Group 14 was diabetic rats treated with combination of Ramipril (0.6 mg/kg) and Hydroxychloroquine (45 mg/kg); Group 15 was diabetic rats treated with combination of Ramipril (0.3 mg/kg) and Hydroxychloroquine (35 mg/kg); Group 16 was diabetic rats treated with Telmisartan (9.5 mg/kg); Group 17 was diabetic rats treated with Telmisartan (4.5 mg/kg); Group 18 was diabetic rats treated with combination of Telmisartan (9.5 mg/kg) and Hydroxychloroquine (35 mg/kg); Group 19 was diabetic rats treated with combination of Telmisartan (4.5 mg/kg) and Hydroxychloroquine (45 mg/kg); Group 20 was diabetic rats treated with combination of Telmisartan (9.5 mg/kg) and Hydroxychloroquine (45 mg/kg); Group 21 was diabetic rats treated with combination of Telmisartan (4.5 mg/kg) and Hydroxychloroquine (35 mg/kg); Group 22 was diabetic rats treated with Azilsartan (4.5 mg/kg); Group 23 was diabetic rats treated with Azilsartan (2.5 mg/kg); Group 24 was diabetic rats treated with combination of Azilsartan (4.5 mg/kg) and Hydroxychloroquine (35 mg/kg); Group 25 was diabetic rats treated with combination of Azilsartan (2.5 mg/kg) and Hydroxychloroquine (45 mg/kg); Group 26 was diabetic rats treated with combination of Azilsartan (4.5 mg/kg) and Hydroxychloroquine (45 mg/kg); Group 27 was diabetic rats treated with combination of Azilsartan (2.5 mg/kg) and Hydroxychloroquine (35 mg/kg); Group 28 served as Anti-Diabetic control wherein diabetic rats were treated with antidiabetic drug Glimepiride (GLM) (1 mg/kg).
The study drugs were dissolved/suspended in vehicle and administered orally once a day for eight weeks. The diabetes mellitus induced nephropathy was assessed by estimating the level of serum urea, serum creatinine and total serum protein content after completion of eighth week of study. TBARS, GSH and Total Protein were measured as markers of renal oxidative stress in Kidney Homogenate after completion of eighth week of study. Blood glucose levels were also assessed at weekly interval.

[1] = dose mg/kg: HCQ 35, LT 5.5, RM 0.3, TL 4.5, AZ 2.5, alone or combined with HCQ 35
[2] = dose mg/kg: HCQ 45, LT 11, RM 0.6, TL 9.5, AZ 4.5, alone or combined with HCQ 45

Compound: CCOc1nc2cccc(C(=O)O)c2n1Cc1ccc(-c2ccccc2-c2nc(=O)o[nH]2)cc1 [Azilsartan]
- HDL [1]: 27.17 ± 1.17 mg/dL
- TC [1]: 142 ± 2.1 mg/dL
- TG [1]: 97 ± 5.66 mg/dL
- HDL [2]: 26.67 ± 1.51 mg/dL
- TC [2]: 141.17 ± 2.32 mg/dL
- TG [2]: 103 ± 3.9 mg/dL
- Glucose Day1 [1]: 267.17 ± 12.21 mg/dL
- Glucose Day1 [2]: 278.5 ± 14.22 mg/dL
- Glucose Day14 [1]: 215.5 ± 14.01 mg/dL
- Glucose Day14 [2]: 224.17 ± 17.93 mg/dL
- Glucose Day28 [1]: 180 ± 8.00 mg/dL
- Glucose Day28 [2]: 179 ± 7.13 mg/dL
- Glucose Day42 [1]: 160.67 ± 6.12 mg/dL
- Glucose Day42 [2]: 158.67 ± 6.77 mg/dL
- Glucose Day56 [1]: 141 ± 6.924 mg/dL
- Glucose Day56 [2]: 139.83 ± 4.79 mg/dL
- GSH [1]: 0.86 ± 0.21 nM/mg
- TBARS [1]: 0.6 ± 0.11 nM/mg
- Total protein kidney [1]: 874.5 ± 21.80 µg/mL
- GSH [2]: 1.26 ± 0.44 nM/mg
- TBARS [2]: 0.58 ± 0.14 nM/mg
- Total protein kidney [2]: 837.5 ± 20.15 µg/mL
- Creatinine [1]: 3.61 ± 0.16 mg/dL
- Total protein [1]: 4.76 ± 0.15 g/dL
- Urea [1]: 40.83 ± 2.64 mg/dL
- Creatinine [2]: 3.44 ± 0.28 mg/dL
- Total protein [2]: 4.99 ± 0.25 g/dL
- Urea [2]: 41 ± 3.58 mg/dL

Compound: CCN(CCO)CCCC(C)Nc1ccnc2cc(Cl)ccc12 (stereo not drawn) [Hydroxychloroquine, 2-[{4-[(7-chloroquinolin-4-yl)amino]pentyl}(ethyl)amino]ethanol]
- HDL [1]: 29.5 ± 2.17 mg/dL
- TC [1]: 133.5 ± 3.62 mg/dL
- TG [1]: 94.83 ± 2.48 mg/dL
- HDL [2]: 29 ± 2.19 mg/dL
- TC [2]: 130.33 ± 2.07 mg/dL
- TG [2]: 96.83 ± 2.93 mg/dL
- HDL (dose mg/kg: HCQ 70, GLM 1): 30.67 ± 1.86 mg/dL
- TC (dose mg/kg: HCQ 70, GLM 1): 124.67 ± 2.94 mg/dL
- TG (dose mg/kg: HCQ 70, GLM 1): 90.17 ± 3.49 mg/dL
- Glucose Day1 [1]: 268.83 ± 17.77 mg/dL
- Glucose Day1 [2]: 277.5 ± 17.74 mg/dL
- Glucose Day1 (dose mg/kg: HCQ 70, GLM 1): 274.5 ± 16.01 mg/dL
- Glucose Day14 [1]: 203.33 ± 28.11 mg/dL
- Glucose Day14 [2]: 229.17 ± 10.38 mg/dL
- Glucose Day14 (dose mg/kg: HCQ 70, GLM 1): 209.67 ± 21.69 mg/dL
- Glucose Day28 [1]: 176.83 ± 29.1 mg/dL
- Glucose Day28 [2]: 184.17 ± 14.5 mg/dL
- Glucose Day28 (dose mg/kg: HCQ 70, GLM 1): 169.5 ± 10.48 mg/dL
- Glucose Day42 [1]: 165 ± 13.61 mg/dL
- Glucose Day42 [2]: 154.17 ± 9.13 mg/dL
- Glucose Day42 (dose mg/kg: HCQ 70, GLM 1): 148.67 ± 8.5 mg/dL
- Glucose Day56 [1]: 151.5 ± 7.42 mg/dL
- Glucose Day56 [2]: 140 ± 7.56 mg/dL
- Glucose Day56 (dose mg/kg: HCQ 70, GLM 1): 130.83 ± 7.22 mg/dL
- GSH [1]: 0.71 ± 0.16 nM/mg
- TBARS [1]: 0.67 ± 0.11 nM/mg
- Total protein kidney [1]: 865.33 ± 27.9 µg/mL
- GSH [2]: 0.7 ± 0.17 nM/mg
- TBARS [2]: 0.65 ± 0.13 nM/mg
- Total protein kidney [2]: 831.67 ± 24.15 µg/mL
- GSH (dose mg/kg: HCQ 70, GLM 1): 0.67 ± 0.19 nM/mg
- TBARS (dose mg/kg: HCQ 70, GLM 1): 0.63 ± 0.12 nM/mg
- Total protein kidney (dose mg/kg: HCQ 70, GLM 1): 752.33 ± 18.8 µg/mL
- Creatinine [1]: 3.11 ± 0.16 mg/dL
- Total protein [1]: 4.52 ± 0.39 g/dL
- Urea [1]: 44.33 ± 1.75 mg/dL
- Creatinine [2]: 2.99 ± 0.34 mg/dL
- Total protein [2]: 5.4 ± 0.36 g/dL
- Urea [2]: 40.83 ± 2.14 mg/dL
- Creatinine (dose mg/kg: HCQ 70, GLM 1): 2.68 ± 0.23 mg/dL
- Total protein (dose mg/kg: HCQ 70, GLM 1): 5.72 ± 0.3 g/dL
- Urea (dose mg/kg: HCQ 70, GLM 1): 38.17 ± 1.47 mg/dL

Compound: CCCCc1nc(Cl)c(CO)n1Cc1ccc(-c2ccccc2-c2nn[nH]n2)cc1 [Losartan]
- HDL [1]: 27.5 ± 1.64 mg/dL
- TC [1]: 143.5 ± 3.39 mg/dL
- TG [1]: 100 ± 5.4 mg/dL
- HDL [2]: 28.5 ± 2.88 mg/dL
- TC [2]: 139.83 ± 3.19 mg/dL
- TG [2]: 98.83 ± 3.66 mg/dL
- Glucose Day1 [1]: 262.5 ± 25.35 mg/dL
- Glucose Day1 [2]: 268.67 ± 15.63 mg/dL
- Glucose Day14 [1]: 211.17 ± 21.48 mg/dL
- Glucose Day14 [2]: 215.67 ± 18.13 mg/dL
- Glucose Day28 [1]: 179.33 ± 7.84 mg/dL
- Glucose Day28 [2]: 178 ± 7.92 mg/dL
- Glucose Day42 [1]: 161.17 ± 4.71 mg/dL
- Glucose Day42 [2]: 152.17 ± 7.28 mg/dL
- Glucose Day56 [1]: 146.33 ± 6.65 mg/dL
- Glucose Day56 [2]: 139 ± 10.92 mg/dL
- GSH [1]: 0.56 ± 0.23 nM/mg
- TBARS [1]: 0.74 ± 0.1 nM/mg
- Total protein kidney [1]: 893.33 ± 29.92 µg/mL
- GSH [2]: 0.66 ± 0.23 nM/mg
- TBARS [2]: 0.63 ± 0.17 nM/mg
- Total protein kidney [2]: 829.67 ± 25.45 µg/mL
- Creatinine [1]: 3.36 ± 0.32 mg/dL
- Total protein [1]: 4.91 ± 0.2 g/dL
- Urea [1]: 39.83 ± 1.72 mg/dL
- Creatinine [2]: 3.26 ± 0.38 mg/dL
- Total protein [2]: 5.32 ± 0.2 g/dL
- Urea [2]: 41 ± 2.53 mg/dL

Compound: CCOC(=O)[C@H](CCc1ccccc1)N[C@@H](C)C(=O)N1[C@H](C(=O)O)C[C@@H]2CCC[C@@H]21 [Ramipril]
- HDL [1]: 27.17 ± 1.47 mg/dL
- TC [1]: 138.33 ± 2.94 mg/dL
- TG [1]: 100.17 ± 5 mg/dL
- HDL [2]: 27.33 ± 1.63 mg/dL
- TC [2]: 142.17 ± 3.31 mg/dL
- TG [2]: 98.5 ± 4.93 mg/dL
- Glucose Day1 [1]: 281.5 ± 18.2 mg/dL
- Glucose Day1 [2]: 260 ± 17.19 mg/dL
- Glucose Day14 [1]: 216.17 ± 21.48 mg/dL
- Glucose Day14 [2]: 203 ± 14.07 mg/dL
- Glucose Day28 [1]: 174.17 ± 9.06 mg/dL
- Glucose Day28 [2]: 174.33 ± 8.91 mg/dL
- Glucose Day42 [1]: 158.5 ± 9.07 mg/dL
- Glucose Day42 [2]: 157.67 ± 9.18 mg/dL
- Glucose Day56 [1]: 145.33 ± 6.38 mg/dL
- Glucose Day56 [2]: 141.67 ± 5.47 mg/dL
- GSH [1]: 1.16 ± 0.62 nM/mg
- TBARS [1]: 0.67 ± 0.1 nM/mg
- Total protein kidney [1]: 835.33 ± 22.27 µg/mL
- GSH [2]: 1.16 ± 0.59 nM/mg
- TBARS [2]: 0.62 ± 0.15 nM/mg
- Total protein kidney [2]: 810 ± 17.12 µg/mL
- Creatinine [1]: 3.37 ± 0.32 mg/dL
- Total protein [1]: 4.76 ± 0.28 g/dL
- Urea [1]: 41.33 ± 1.97 mg/dL
- Creatinine [2]: 3.68 ± 0.24 mg/dL
- Total protein [2]: 4.77 ± 0.21 g/dL
- Urea [2]: 41 ± 1.79 mg/dL
